Values quoted from earlier work, collected in article PMC9516332 (Frontiers in Oncology, 2022).
Read-outs that look alike come from different tables or passages of the source.

Legend:
Conditions in all cases: cited from earlier work
[1] = target: T1, panel of 255 wild-type kinases (Homo sapiens, UniProt O00418)
T1 sequence (O00418 1-725): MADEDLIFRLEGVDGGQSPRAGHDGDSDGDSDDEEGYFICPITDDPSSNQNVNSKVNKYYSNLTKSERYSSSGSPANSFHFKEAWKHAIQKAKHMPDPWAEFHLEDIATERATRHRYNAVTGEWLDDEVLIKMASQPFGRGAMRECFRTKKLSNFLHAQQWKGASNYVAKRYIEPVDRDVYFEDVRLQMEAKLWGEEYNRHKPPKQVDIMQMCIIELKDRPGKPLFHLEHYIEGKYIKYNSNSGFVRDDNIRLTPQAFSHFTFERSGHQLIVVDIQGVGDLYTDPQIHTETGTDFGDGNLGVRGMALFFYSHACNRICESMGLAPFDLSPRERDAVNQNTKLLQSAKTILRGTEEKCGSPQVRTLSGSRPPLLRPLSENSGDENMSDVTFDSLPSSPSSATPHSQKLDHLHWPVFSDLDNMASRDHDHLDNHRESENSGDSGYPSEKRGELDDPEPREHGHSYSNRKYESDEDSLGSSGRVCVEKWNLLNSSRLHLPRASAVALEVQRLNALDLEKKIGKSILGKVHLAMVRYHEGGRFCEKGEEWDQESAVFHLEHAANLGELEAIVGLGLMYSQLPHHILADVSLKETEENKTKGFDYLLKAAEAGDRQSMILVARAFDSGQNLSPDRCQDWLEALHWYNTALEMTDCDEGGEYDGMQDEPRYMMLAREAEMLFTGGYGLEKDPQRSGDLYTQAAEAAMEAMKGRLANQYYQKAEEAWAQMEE

[2] = target: panel of 255 wild-type kinases (Homo sapiens, UniProt O95819)
[3] = target: panel of 255 wild-type kinases (Homo sapiens, UniProt P05771)
[4] = target: panel of 255 wild-type kinases (Homo sapiens, UniProt P24941)
[5] = target: panel of 255 wild-type kinases (Homo sapiens, UniProt P29597)
[6] = target: panel of 255 wild-type kinases (Homo sapiens, UniProt P51812)
[7] = target: panel of 255 wild-type kinases (Homo sapiens, UniProt P78368)
[8] = target: panel of 255 wild-type kinases (Homo sapiens, UniProt Q15418)
[9] = target: T2, panel of 255 wild-type kinases (Homo sapiens, UniProt P51813)
T2 sequence (P51813 1-675): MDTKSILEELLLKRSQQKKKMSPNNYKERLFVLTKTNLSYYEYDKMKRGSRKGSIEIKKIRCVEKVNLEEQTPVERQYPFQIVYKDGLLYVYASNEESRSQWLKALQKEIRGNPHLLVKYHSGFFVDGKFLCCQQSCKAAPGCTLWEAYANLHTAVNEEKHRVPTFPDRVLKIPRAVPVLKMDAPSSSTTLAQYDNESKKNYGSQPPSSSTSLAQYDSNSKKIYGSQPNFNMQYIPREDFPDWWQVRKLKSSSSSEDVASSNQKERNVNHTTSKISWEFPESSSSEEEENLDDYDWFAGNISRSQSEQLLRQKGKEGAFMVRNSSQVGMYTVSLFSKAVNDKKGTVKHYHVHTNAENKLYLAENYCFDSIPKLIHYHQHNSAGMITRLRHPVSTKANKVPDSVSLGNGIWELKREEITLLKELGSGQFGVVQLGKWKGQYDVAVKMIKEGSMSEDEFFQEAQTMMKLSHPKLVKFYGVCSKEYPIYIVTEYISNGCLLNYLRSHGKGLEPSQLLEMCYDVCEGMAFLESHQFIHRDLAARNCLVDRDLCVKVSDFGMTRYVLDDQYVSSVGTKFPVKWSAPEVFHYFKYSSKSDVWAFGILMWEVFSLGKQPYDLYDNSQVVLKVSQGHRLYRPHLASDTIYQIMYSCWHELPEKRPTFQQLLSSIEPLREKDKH

[10] = kinase EEF2K, 1 µmol/L single concentration, ref DOI: 10.1158/1535-7163.MCT-18-0877
[11] = kinase HGK, 1 µmol/L single concentration, ref DOI: 10.1158/1535-7163.MCT-18-0877
[12] = kinase PKCβ1, 1 µmol/L single concentration, ref DOI: 10.1158/1535-7163.MCT-18-0877
[13] = CDK2/CycA2 kinase assay, 1 µmol/L single concentration, ref DOI: 10.1158/1535-7163.MCT-18-0877
[14] = CDK2/CycE1 kinase assay, 1 µmol/L single concentration, ref DOI: 10.1158/1535-7163.MCT-18-0877
[15] = kinase TYK2, 1 µmol/L single concentration, ref DOI: 10.1158/1535-7163.MCT-18-0877
[16] = kinase RSK2, 1 µmol/L single concentration, ref DOI: 10.1158/1535-7163.MCT-18-0877
[17] = kinase CK1γ2, 1 µmol/L single concentration, ref DOI: 10.1158/1535-7163.MCT-18-0877
[18] = kinase RSK1, 1 µmol/L single concentration, ref DOI: 10.1158/1535-7163.MCT-18-0877
[19] = BMX kinase assay, 1 µmol/L single concentration, ref DOI: 10.1158/1535-7163.MCT-18-0877
[20] = kinase EEF2K, 1 µmol/L single concentration, ref DOI: 10.1371/journal.pone.0092146
[21] = kinase PKCβ1, 1 µmol/L single concentration, ref DOI: 10.1371/journal.pone.0092146
[22] = CDK2/CycA2 kinase assay, 1 µmol/L single concentration, ref DOI: 10.1371/journal.pone.0092146
[23] = CDK2/CycE1 kinase assay, 1 µmol/L single concentration, ref DOI: 10.1371/journal.pone.0092146
[24] = kinase TYK2, 1 µmol/L single concentration, ref DOI: 10.1371/journal.pone.0092146
[25] = kinase RSK2, 1 µmol/L single concentration, ref DOI: 10.1371/journal.pone.0092146
[26] = kinase RSK1, 1 µmol/L single concentration, ref DOI: 10.1371/journal.pone.0092146
[27] = kinase HGK, 1 µmol/L single concentration, ref DOI: 10.1371/journal.pone.0092146
[28] = BMX kinase assay, 1 µmol/L single concentration, ref DOI: 10.1371/journal.pone.0092146
[29] = kinase CK1γ2, 1 µmol/L single concentration, ref DOI: 10.1371/journal.pone.0092146

Row | SMILES | %-inhibition at 1 µmol/L, EEF2K [1, 10] | %-inhibition at 1 µmol/L, HGK [2, 11] | %-inhibition at 1 µmol/L, PKCβ1 [3, 12] | %-inhibition CDK2/CycA2 [4, 13] | %-inhibition CDK2/CycE1 [4, 14] | %-inhibition at 1 µmol/L, TYK2 [5, 15] | %-inhibition at 1 µmol/L, RSK2 [6, 16] | %-inhibition at 1 µmol/L, CK1γ2 [7, 17] | %-inhibition at 1 µmol/L, RSK1 [8, 18] | %-inhibition BMX [9, 19] | %-inhibition at 1 µmol/L, TYK2 [5, 24] | further results
1 | CC#CC(=O)N1CCC[C@H]1c1nc(-c2ccc(C(=O)Nc3ccccn3)cc2)c2c(N)nccn12 [acalabrutinib] | -12% | -1.42% | -11% | -5% | -5% | 13% | 0.054% | -7% | 3.57% |  |  | 
2 | CCc1cc2c(cc1N1CCC(N3CCOCC3)CC1)C(C)(C)c1[nH]c3cc(C#N)ccc3c1C2=O [alectinib] | -0.237% | 20% | -1.89% | 5.68% | -2.55% | 14% | 14% | -0.041% | 15% | 4% |  | 
3 | COc1cc(N2CCC(N3CCN(C)CC3)CC2)ccc1Nc1ncc(Cl)c(Nc2ccccc2P(C)(C)=O)n1 [brigatinib] |  |  |  |  |  |  |  |  |  |  |  | %-inhibition at 1 µmol/L, EEF2K [1]: 2.53%; %-inhibition at 1 µmol/L, HGK [2]: 18%; %-inhibition at 1 µmol/L, PKCβ1 [3]: 7.42%; %-inhibition CDK2/CycA2 [4]: 53%; %-inhibition CDK2/CycE1 [4]: 30%; %-inhibition at 1 µmol/L, TYK2 [5]: 23%; %-inhibition at 1 µmol/L, RSK2 [6]: 97%; %-inhibition BMX [9]: 18%; %-inhibition at 1 µmol/L, CK1γ2 [7]: -2.5%; %-inhibition at 1 µmol/L, RSK1 [8]: 98%
4 | Cc1cc(Nc2ncc(Cl)c(Nc3ccccc3S(=O)(=O)C(C)C)n2)c(OC(C)C)cc1C1CCNCC1 [ceritinib] | 11% | 10% | 6.66% | -5.32% | -7.57% | 13% | 83% | 0.506% | 75% | -0.557% |  | 
5 | O=C(c1ccc(F)c(F)c1Nc1ccc(I)cc1F)N1CC(O)([C@@H]2CCCCN2)C1 [cobimetinib] | -0.685% | 2.27% | -4.35% | -8% | -8% | 6.35% | 6% | 2.37% | 1.39% | 3.49% |  | 
6 | C[C@@H](Oc1cc(-c2cnn(C3CCNCC3)c2)cnc1N)c1c(Cl)ccc(F)c1Cl [crizotinib] |  |  |  |  |  |  |  |  |  |  | 21% | %-inhibition at 1 µmol/L, EEF2K [1, 20]: -4.6%; %-inhibition at 1 µmol/L, PKCβ1 [3, 21]: -3%; %-inhibition CDK2/CycA2 [4, 22]: 3%; %-inhibition CDK2/CycE1 [4, 23]: -14%; %-inhibition at 1 µmol/L, RSK2 [6, 25]: 0.217%; %-inhibition at 1 µmol/L, RSK1 [8, 26]: -5%
7 | CC(C)(C)c1nc(-c2cccc(NS(=O)(=O)c3c(F)cccc3F)c2F)c(-c2ccnc(N)n2)s1 [dabrafenib] |  |  |  |  |  |  |  |  |  |  | 10% | %-inhibition at 1 µmol/L, HGK [2, 27]: 7%; %-inhibition BMX [9, 28]: 55%
8 | C=CC(=O)N1CCC[C@@H](n2nc(-c3ccc(Oc4ccccc4)cc3)c3c(N)ncnc32)C1 [ibrutinib] | 1.15% | -0.0249% | -3% | -12% | -8% | 7% | 7.41% | 1% | 5.47% |  |  | 
9 | CO[C@@H]1[C@H](N(C)C(=O)c2ccccc2)C[C@H]2O[C@]1(C)n1c3ccccc3c3c4c(c5c6ccccc6n2c5c31)C(=O)NC4 [midostaurin] | -9% | 97% | 89% | 52% | 22% |  | 99% | -2.45% | 98% | 81% |  | 
10 | C=CC(=O)Nc1cc(Nc2nccc(-c3cn(C)c4ccccc34)n2)c(OC)cc1N(C)CCN(C)C [osimertinib] | -0.355% | 80% | 9% | -6% | 24% | 9% | 42% | 17% | 42% | 57% |  | 
11 | CC(=O)Nc1cccc(-n2c(=O)n(C3CC3)c(=O)c3c(Nc4ccc(I)cc4F)n(C)c(=O)c(C)c32)c1 [trametinib] |  |  |  |  |  |  |  |  |  |  | 2.16% | %-inhibition at 1 µmol/L, EEF2K [1, 20]: -3.43%; %-inhibition at 1 µmol/L, HGK [2, 27]: -3.71%; %-inhibition at 1 µmol/L, PKCβ1 [3, 21]: -3.47%; %-inhibition CDK2/CycA2 [4, 22]: 24%; %-inhibition CDK2/CycE1 [4, 23]: 2.59%; %-inhibition at 1 µmol/L, RSK2 [6, 25]: -1.76%; %-inhibition BMX [9, 28]: -3.22%; %-inhibition at 1 µmol/L, CK1γ2 [7, 29]: -2.15%; %-inhibition at 1 µmol/L, RSK1 [8, 26]: -10%
12 | CCCS(=O)(=O)Nc1ccc(F)c(C(=O)c2c[nH]c3ncc(-c4ccc(Cl)cc4)cc23)c1F [vemurafenib] |  |  |  |  |  |  |  |  |  |  | 6% | %-inhibition at 1 µmol/L, EEF2K [1, 20]: -5%; %-inhibition at 1 µmol/L, HGK [2, 27]: 26%; %-inhibition at 1 µmol/L, PKCβ1 [3, 21]: -3.81%; %-inhibition CDK2/CycA2 [4, 22]: -3%; %-inhibition CDK2/CycE1 [4, 23]: -5%; %-inhibition at 1 µmol/L, RSK2 [6, 25]: -2.31%; %-inhibition BMX [9, 28]: 24%; %-inhibition at 1 µmol/L, CK1γ2 [7, 29]: 0.506%; %-inhibition at 1 µmol/L, RSK1 [8, 26]: -1.32%
